Measured values from patent US9005903B2, “Immunomodulating compositions and methods of use thereof” (ImmuneXcite, Inc., priority 2008, dated 2015).

Test system: IgG antibodies
Assay: Serum IgG antibodies binding glucan
Conditions: pooled serum from 10 human donors
Description: Serum from 10 unimmunized normal healthy donors was pooled
Pooled serum from 10 human donors, had high levels of IgG antibodies binding β-1,6-glucan, in contrast to low levels of IgG binding β-1,3-glucan. To test how prevalent is the anti-β-b 1,6-glucan antibodies in different donors, we collected sera from 12 individuals. The sera were used to opsonize β-1,6-glucan- or β-1,3-glucan-coated beads, and the beads were incubated with human neutrophils. Eleven of the twelve sera had the high response that the pool did, mediating efficient engulfment and ROS production (FIG. 2A, a representative serum of the high responders). One serum mediated a less efficient engulfment and ROS production (FIG. 2B, low responder).

levels of IgG antibodies binding the glucan | Substance
low levels | β-1,3-glucan
high levels | β-1,6-glucan
